Laboratory results reported in US6495160B2, “Biphasic multicomponent pharmaceutical dosage forms containing substances able to modify the partitioning of drugs” (Eurand International S.p.A., priority 1997, dated 2002).

Test: Apparent partition coefficient (Pm) between oil and water phases
Assay type: physicochemical
Settings: oily phase Labrafac Hydro, benzyl alcohol 1:1, 24 hours
Experimental: The water volume contained a starting concentration of active principle (C0) which was lower than the solubility of the active principle in each of the two phases. At the end of the experiment, the concentrations of active principle in the water phase (CA) were measured by cromatography (HPLC).

## CS(=O)(=O)Nc1ccc([N+](=O)[O-])cc1Oc1ccccc1 [NIME, Nimesulide]
NMP 0% in aqueous phase
  Partition coefficient (Pm) of the Active Principle: 1.75
NMP 5% in aqueous phase
  Partition coefficient (Pm) of the Active Principle: 36.7
NMP 10% in aqueous phase
  Partition coefficient (Pm) of the Active Principle: 63.5
NMP 15% in aqueous phase
  Partition coefficient (Pm) of the Active Principle: 98.3
NMP 20% in aqueous phase
  Partition coefficient (Pm) of the Active Principle: 29.6
